Experimental data from ChEMBL document CHEMBL1149172, “BREED: Generating novel inhibitors through hybridization of known ligands. Application to CDK2, p38, and HIV protease” (J Med Chem, 2004).
pKi: −log10 of the molar value.

Molecular target: Human immunodeficiency virus type 1 protease (Human immunodeficiency virus 1, UniProt Q72874)
Experiment: Inhibitory activity against HIV-I protease was determined

| SMILES | pKi |
| --- | --- |
| CC(C)CN(C[C@@H](O)[C@H](Cc1ccccc1)NC(=O)[C@H](CC(N)=O)NC(=O)c1ccc2ccccc2n1)S(=O)(=O)N1ONc2ccccc21 | 10.00 |
| CC(C)CN(C[C@@H](O)[C@H](Cc1ccccc1)NC(=O)O[C@H]1CCOC1)S(=O)(=O)NC(C)(C)C | 7.38 |
